Experimental data taken from publication PMC4884960, “Long lasting MDM2/Translocator protein modulator: a new strategy for irreversible apoptosis of human glioblastoma cells” (Oncotarget, 2016).

What was measured:
[1] = biological target: T1, human TSPO (Homo sapiens, UniProt P30536); experiment: Equilibrium [3H]PK11195 radioligand binding assay in U87MG cell membranes
T1 construct: aliquots of U87MG cell membranes (20 μg of proteins) were incubated with [^3H]PK 11195 (1.5 nM); endogenous in cells; host or cells: U87MG human glioblastoma cell membranes
T1 sequence (P30536 whole entry): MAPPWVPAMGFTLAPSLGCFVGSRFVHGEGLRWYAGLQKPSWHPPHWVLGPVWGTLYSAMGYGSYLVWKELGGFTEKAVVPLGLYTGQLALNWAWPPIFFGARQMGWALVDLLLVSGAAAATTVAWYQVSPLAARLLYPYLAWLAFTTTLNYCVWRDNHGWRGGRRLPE
Method: Equilibrium radioligand binding assays were performed essentially as previously described. […] Samples were rapidly filtered under vacuum through GF/C glass fiber filters.

[2] = biological target: T1, human TSPO; experiment: TSPO association/dissociation and competition kinetics with [3H]PK11195; type: binding; settings: for Kd: calculated as ratio of estimated koff and kon
Source text: Association and dissociation rate constants for [^3H]
For competition kinetics, the [^3H]

[3] = system: mitochondria isolated from U87MG cells; experiment: Mitochondrial membrane potential (Δψm) dissipation, JC-1 protocol; type: biochemical, human; settings: 1 μM, 20 min; for JC-1 accumulation (Δψm) compared to control untreated mitochondria: isolated mitochondria
Method: The Δψm dissipation was assessed using the fluorescent dye 5,59,6,69-tetrachloro1,19,3,39-tetraethylbenzimidazolylcarbocyanine iodide (JC-1). Mitochondria were isolated from U87MG cells using the Mitochondria Isolation Kit (Sigma Aldrich, Milan, Italy) following manufacturer's instructions.
Isolated mitochondria were treated for 20 min with EB54 or EB148 (1 μM). In wash-out experiments, mitochondria were then centrifuged at 11.000 × g for 5 min, washed with fresh saline and suspended in JC-1 buffer not containing the drugs. At the end of treatments, 5 μg of control and treated mitochondria were added to the JC-1 dye. The fluorescence (relative fluorescence units, RFU) of the sample was read in a spectrofluorimeter using a time-drive method (one acquisition each 10 sec, for 10 min), where the excitation wavelength was set to 490 nm and emission wavelength at 590 nm. […] Consequently, mitochondrial depolarization is indicated by a decrease in the orange-red fluorescence intensity.

[4] = system: p53 target genes (p53, p21 and MDM2); experiment: Relative mRNA quantification of p53 target genes by real-time RT-PCR; type: cell-based, human; settings: for levels of p53 target gene transcripts after wash-out: treated for 2 h (text; legend: 16 h), washed out for 16 h in drug-free medium
Method: In brief, total RNA was extracted from control cells as well as from cells treated with EB148 or EB54 (1 μM) for different times (8 h, 16 h or 24 h), using RneasyH Mini Kit (Qiagen, Hilden, Germany), according to manufacturer's instructions. cDNA synthesis was performed with 500 ng of RNA using i-Script cDNA synthesis kit (BioRad, Hercules, USA). RT-PCR reactions consisted of 25 μl FluocycleH II SYBRH (Euroclone, Milano, Italy), 1.5 μl of both 10 μM forward and reverse primers (listed in [56]), 3 μl cDNA, and 19 μL of H2O. […] PCR specificity was verified by both the melting curve analysis and gel electrophoresis.

[5] = system: p53 protein; experiment: p53 protein accumulation by western blotting; type: cell-based, human; settings: for p53 protein levels after wash-out: 1 μM for 16 h, then wash-out of 16 h; for p53 protein levels: 1 μM, 16 h
Method: U87MG were treated with DMSO (control), EB148 or EB54 for 16 h. […] […] Glyceraldehyde-3-phosphate dehydrogenase (GAPDH) was the loading control ([…], Sigma Aldrich, Milan, Italy, 1:5000). The primary antibodies were detected using the appropriate peroxidase-conjugated secondary antibodies, which were then detected using a chemioluminescent substrate (ECL, Perkin Elmer). Densitometric analysis of the immunoreactive bands was performed using Image J Software.

[6] = system: ERK1/2; experiment: ERK1/2 phosphorylation ELISA in U87MG cells; type: cell-based, human; settings: for ERK1/2 phosphorylation: 1 μM, up to 8 h; for effect of blocking p53 on compound-mediated ERK1/2 activation: pifithrin-β 1 μM 30 min, then compound 1 μM 2 h
Method: Figure 10 ERK phosphorylation and levels of ERK/MDM2 complex in U87MG cells A. U87MG cells were treated with DMSO (control), 1 μΜ EB148 or 1 μΜ EB54 for the indicated times; in some experiments, after 2 h of treatment the medium was replaced by fresh medium not containing drugs for an additional 2 h. At the end of the treatment period the levels of ERK 1/2 phosphorylation were evaluated using ELISA kits, as described in the Methods section. The data are expressed as the percentage of phosphorylated ERK1/2 versus untreated cells (control), which were set at 100%. Data are the mean values ± SEM of three independent experiments performed in triplicate. Analysis of significant differences in mean ERK/MDM2 complex levels was performed using one-way ANOVA with a Bonferroni post-test: * p< 0.05, ** p< 0.01, *** p<0.001 vs. control. […] C. U87MG cells were treated with DMSO (control), 1 μΜ EB148 or 1 μΜ EB54 for the indicated times; in some experiments, after 8 h of treatment, the medium was replaced by fresh medium not containing drugs for an additional 24 h. At the end of the treatment period, U87MG cells were collected and suspended in lysis buffer. Equal amounts of cell lysates were captured on wells pre-coated with MDM2 antibody. After extensive washing, the levels of the ERK/MDM2 complex were quantified using an antibody specific for ERKs, and subsequently an HRP-conjugated antibody and a TMB substrate kit. Data are expressed as percentage of control set to 100%, and represent the mean ± SEM of three independent experiments. The significance of the differences was determined with a one-way ANOVA with Bonferroni post-test: * p<0.05, ** p<0.01, *** p<0.001 vs. control.

[7] = system: U87MG cells; experiment: U87MG cell proliferation, MTS assay; type: cell-based, human; settings: for cell proliferation 72 h after cell wash-out: U87MG, 72 h treatment, then drug-free medium 72 h
Method: The effects of compound treatment on U87MG cell viability and proliferation were evaluated by Trypan blue exclusion assays and MTS assay, respectively. […] For quantization of cell viability, blue and bright cells were counted, and viability was calculated as the number of living (bright) and dead (blue) cells in each well.
The absorbance of formazan at 490 nm was measured in a colorimetric assay with an automated plate reader (Victor Wallac 2, Perkin Elmer). For wash-out experiments, U87MG cells were treated with EB148 or EB54 (100 nM-10 μM) for 72 h. Following incubation, medium-containing drugs was replaced by fresh medium, and cells were allowed to growth for the indicated days. At the end of treatments, cell proliferation was measured by MTS assay. The results were calculated by subtracting the mean background from the values obtained from each evaluation and were expressed as the percentage of the control (untreated cells). Sigmoid dose-response curve was generated, from which the IC50 values were derived.

[8] = system: U87MG cells; experiment: U87MG cell viability, trypan blue exclusion test; type: cell-based, human; settings: 72 h, maximal effect at 100 μM
Method: The effects of compound treatment on U87MG cell viability and proliferation were evaluated by Trypan blue exclusion assays and MTS assay, respectively. U87MG cells were treated with EB148 or EB54 for 72 h. Following treatment, harvested cells were mixed with an equal volume of 0.4% trypan blue dye. For quantization of cell viability, blue and bright cells were counted, and viability was calculated as the number of living (bright) and dead (blue) cells in each well. To establish the effect of MDM2 inhibitors on cell proliferation, cells were treated for 72 h with different concentrations of each compound (0.1 nM–100 μM) for 72 h, and then MTS assay was performed according to the manufacturer's instructions.

[9] = system: mesenchymal Stem Cells (MSCs) isolated from human bone marrow; experiment: Toxicity in non-tumour cells, MSC proliferation by MTS assay; type: cell-based; settings: 72 h; EB54 at 10 μM; EB148 up to the highest concentration tested
Method: […]. At the end of treatments, cell proliferation was measured by MTS assay.

[10] = system: U87MG cells; experiment: Annexin V and 7-AAD staining (apoptosis); type: cell-based, human; settings: 1 μM, 24 h
Method: Dual staining with Annexin V coniugated to fluorescein-isothiocyanate (FITC) and 7-amino-actinomysin (7-AAD) was performed using the commercially available kit (Muse Annexin V and Dead Cell Kit; Merck KGaA, Darmstadt, Germany).
U87MG cells were treated with DMSO (control), EB54 or EB148 (1 μM) for 24 h. Both floating and adherent cells were collected, and incubated for 10 min at room temperature with the fluorescent reagent. After incubation, the percentages of living, apoptotic and dead cells were acquired and analyzed by MuseTM Cell Analyzer in accordance to the manufacture's guidelines.

[11] = Stability test in aqueous solution by HPLC; type: physicochemical; settings: 1 μM in PBS with 1% DMSO, within 72 h
Method: To test the stability of EB148 in aqueous solution, the compound was dissolved in DMSO and diluted with PBS to the final 1 μM concentration (the amount of DMSO in the final solution was 1%). The solution was maintained in a closed vial and analysed by HPLC at specific times (4, 8, 24, 48 and 72 h) using the following conditions: column Shim-pack VP-ODS 4.6 μm (250 mm × 4.6 mm), isocratic elution with water, flow rate of 1 ml/min, room temperature. The percentage of decomposition was calculated on the base of peak area of the product.

[12] = biological target: T2, MDM2/p53 complex (Homo sapiens, UniProt Q00987); experiment: Dissociation of native MDM2/p53 complex, sandwich immuno-enzymatic assay on U87MG cell lysates; type: biochemical
T2 construct: endogenous in cells; host or cells: crude lysates of U87MG human glioblastoma cells
T2 sequence (Q00987 whole entry, one chain of several): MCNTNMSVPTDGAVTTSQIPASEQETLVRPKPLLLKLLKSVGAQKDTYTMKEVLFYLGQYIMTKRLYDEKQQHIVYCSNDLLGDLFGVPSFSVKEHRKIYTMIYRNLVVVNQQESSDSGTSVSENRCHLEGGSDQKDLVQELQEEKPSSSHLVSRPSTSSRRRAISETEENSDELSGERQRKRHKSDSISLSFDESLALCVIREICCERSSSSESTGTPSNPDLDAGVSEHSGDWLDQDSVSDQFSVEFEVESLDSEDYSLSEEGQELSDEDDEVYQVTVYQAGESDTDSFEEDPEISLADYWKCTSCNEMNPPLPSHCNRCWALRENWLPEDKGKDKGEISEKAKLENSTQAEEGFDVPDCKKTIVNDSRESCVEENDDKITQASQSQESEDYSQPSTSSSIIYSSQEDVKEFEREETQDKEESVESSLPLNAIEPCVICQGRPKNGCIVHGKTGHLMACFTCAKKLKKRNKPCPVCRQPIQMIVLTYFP
Method: Cells were washed twice in ice-cold phosphate-buffered saline, collected by centrifugation, and suspended in lysis buffer (20 mM Tris HCl, 137 mM NaCl, 10% glycerol, 1% NONIDET40, 2 mM EDTA, pH 8) containing 1% of the Protease inhibitor Cocktail (Sigma Aldrich, Milan, Italy). 96-wells were pre-coated with a mouse full-length anti-MDM2 antibody (sc-965, Santa Cruz Biotechnology, 1:50 in 0.05% Poly-L-Ornithine) overnight at room temperature. Cell lysates (20 μg in a final volume of 100 μl) were pre-incubated with DMSO (control), or different compound concentration for 10 min at room temperature, and then transferred to the pre-coated wells for 60 min. After three quick washes with PBS/Tween 0.05% to remove unbound MDM2, each well was incubated for 15 min with 1% BSA, to block nonspecific sites, and then for 1.5 h at room temperature with a rabbit primary anti-p53 antibody (sc-6243, Santa Cruz Biotechnology, 1:250). Then, wells were washed and incubated for 1 h with an anti-rabbit HRP-conjugate antibody, and washed again. […] Blanks were obtained processing cell lysates in the absence of the primary anti-p53 antibody.

[13] = biological target: T2, MDM2/p53 complex; experiment: Association and dissociation kinetics towards MDM2 in U87MG cell lysates; type: biochemical; settings: lysates treated at ten-fold IC50, diluted 1:20, 0-180 min
Method: Following incubation, cell lysates were captured on wells pre-coated with MDM2 antibody for an additional 60 min.
Dissociation was initiated by the addition of 20 volumes of cold buffer, and lysates were further incubated at 4°C for the indicated times (0-180 min). Following incubation, 200 μl of the mixture were captured on wells pre-coated with MDM2 antibody for an additional 60 min.

[14] = biological target: T3, p53/MDM2 complex (Homo sapiens, UniProt Q00987); experiment: Levels of p53/MDM2 complex in U87MG whole cells (ELISA); type: cell-based
T3 construct: endogenous in cells; host or cells: U87MG human glioblastoma cells, treated whole and then lysed
T3 sequence (Q00987 whole entry, one chain of several): as above
Method: (§1) U87MG cells were treated with DMSO (control), EB148 or EB54 for different times. When indicated, after 8 h of incubation, cells were washed twice with fresh saline and cultured in drug-free medium for an additional 24 h. At the end of the treatment period, the cells were collected, and suspended in lysis buffer containing 1% of the Protease inhibitor Cocktail.

[15] = system: ERK/MDM2 complex; experiment: Levels of ERK/MDM2 complex in U87MG cells (ELISA); type: cell-based, human
Method: as §1

Row | Compound | Ki [1] [nM] | koff [2] [s⁻¹] | kon [2] [M⁻¹ s⁻¹] | Kd [2] [nM] | JC-1 accumulation (Δψm) compared to control untreated mitochondria [3] | levels of p53 target gene transcripts after wash-out [4] | p53 protein levels after wash-out [5] | p53 protein levels [5] | ERK1/2 phosphorylation [6] | effect of blocking p53 on compound-mediated ERK1/2 activation [6] | cell proliferation 72 h after cell wash-out [7] | total number of living cells [8] | MSC viability/proliferation [9] | phosphatidylserine externalization (early and late apoptosis) [10] | also measured
1 | CCOC(=O)[C@@H](Cc1ccccc1)NC(=O)[C@H](CC(C)C)NC(=O)C(=O)c1c(-c2ccccc2)[nH]c2ccccc12 [EB54] | 108 ± 10 | 0.000482 | 3600 | 134 | significant reduction | down-regulated | control levels | slight but significant increase | did not induce any significant ERK1/2 stimulation | did not significantly affect | significant recovery in proliferative activity | reduced the total number of living cells | significantly decreased | significant phoshpatidilserine externalization | mRNA expression level of p21, p53 and MDM2 ([4]; 1 μM, 8 and 16 h): significant increase; mRNA expression of p21, p53 and MDM2 ([4]; 1 μM, after 24 h): significantly lower than controls
2 | CCOC(=O)[C@@H](Cc1ccccc1)NC(=O)[C@H](CC(C)C)NC(=O)C(=O)c1c(-c2ccccc2)[nH]c2ccc(N=C=S)cc12 [EB148] | 199 ± 18 | 8.01e-05 | 5350 | 150 | significant reduction | returned to control values | maintained high p53 levels | slight but significant increase | significant ERK phosphorylation | completely impaired | inhibition of cell proliferation was maintained | reduced the total number of living cells | did not affect MSC proliferation | significant phoshpatidilserine externalization | average peak area (stability in aqueous solution) [11]: 98.83 ± 0.47%; Δψm after mitochondria wash-out ([3]; then centrifuged and washed to remove the ligands): determined Δψm collapse; IC50 [12]: 6.81 ± 0.79 nM; activity in inhibiting p53-MDM2 complex after sample dilution [13]: maintained unchanged; p53-MDM2 complex formation after 24 h cell wash-out ([14]; 1 μM for 8 h, then 24 h wash-out): significantly lower than in the control; p53-MDM2 complex in whole cells ([14]; 1 μM, 8 h): inhibited; induction of MDM2 mRNA ([4]; 1 μM, 8 h): 6.9 fold; induction of MDM2 mRNA ([4]; 1 μM, 16 h): 8.8 fold; induction of MDM2 mRNA ([4]; 1 μM, 24 h): 2.2 fold; mRNA expression of p53 target genes ([4]; 1 μM, up to 24 h of cell treatment): sustained increase; ERK activation after cell wash-out ([6]; 1 μM for 2 h, then drug-free medium for 2 h): continued to significantly activate; ERK/MDM2 association after cell wash-out ([15]; 1 μM for 8 h, then wash-out for 24 h): remained significant; ERK/MDM2 complex formation ([15]; 1 μM, 8 and 24 h): significant and marked induction; IC50 ([7]; Homo sapiens, U-87 MG, 72 h, read-out: IC50 of cell proliferation): 91.6 ± 8.9 nM
